Measurements as given in the supplement of paper PMC7017272.
± gives the standard deviation of the averaged measurements.

Columns and labels:
UT-SCC-8 = test: drug sensitivity score (DSS); higher = more sensitive; extreme values may be limits of the assay; conditions: treatment time: 3 days
Summary of the method: (§1)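 HPV-negative HNSCC cell lines were plated at 500 cells/well in 384-well plates, either on plastic, on wells coated with Matrigel or Myogel (500 µg/mL), or embedded in Matrigel or Myogel plus rat collagen I. Each compound was tested at five 10-fold concentrations over 3 days. Viability was measured by CellTiter-Glo 2.0 luminescence, and IC50, maximal inhibition and drug sensitivity score came from percent-inhibition dose–response curves fitted in the FIMM pipeline after normalisation to vehicle (0.1% DMSO) and cell-killing control wells.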

UT-SCC-24B = test: as above; conditions: treatment time: 3 days
Summary of the method: as §1

UT-SCC-42B = test: as above; conditions: treatment time: 3 days
Summary of the method: as §1

UT-SCC-73 [1] = test: as above; conditions: treatment time: 3 days
Summary of the method: as §1

UT-SCC-81 = test: as above; conditions: treatment time: 3 days
Summary of the method: as §1

UT-SCC-40 = test: as above; conditions: treatment time: 3 days
Summary of the method: as §1

UT-SCC-106A = test: as above; conditions: treatment time: 3 days
Summary of the method: as §1

UT-SCC-44 [2] = test: as above; conditions: treatment time: 3 days
Summary of the method: as §1

UT-SCC-42A [3] = test: as above; conditions: treatment time: 3 days
Summary of the method: as §1

UT-SCC-28 = test: as above; conditions: treatment time: 3 days
Summary of the method: as §1

UT-SCC-14 [4] = test: as above; conditions: treatment time: 3 days
Summary of the method: as §1

UT-SCC-73 [5] = test: relative IC50 (midpoint of the fitted curve; maximal inhibition may be below 50%); higher = less potent; conditions: culture condition: embedded in Matrigel; treatment time: 3 days
Summary of the method: as §1

UT-SCC-44 [6] = test: as above; conditions: treatment time: 3 days
Summary of the method: as §1

UT-SCC-42A [7] = test: as above; conditions: culture condition: embedded in Matrigel; treatment time: 3 days
Summary of the method: as §1

UT-SCC-14 [8] = test: as above; conditions: treatment time: 3 days
Summary of the method: as §1

[9] = culture condition: embedded in Matrigel
[10] = culture condition: embedded in Myogel + collagen I
[11] = culture condition: on top of Matrigel
[12] = culture condition: on top of Myogel
[13] = culture condition: plastic 2D (no matrix)

SMILES: COc1ccc(-c2cc3c(C)nc(N)nc3n([C@H]3CC[C@H](OCCO)CC3)c2=O)cn1
- drug sensitivity score (UT-SCC-8; [9]): 11.4 ± 2.5 DSS
- drug sensitivity score (UT-SCC-8; [10]): 4.97 ± 1.8 DSS
- drug sensitivity score (UT-SCC-8; [11]): 10.9 ± 3.1 DSS
- drug sensitivity score (UT-SCC-8; [12]): 10.9 ± 3.6 DSS
- drug sensitivity score (UT-SCC-8; [13]): 10.4 ± 2.7 DSS
- drug sensitivity score (UT-SCC-24B; [9]): 15.4 ± 3.6 DSS
- drug sensitivity score (UT-SCC-24B; [10]): 19.8 ± 1.6 DSS
- drug sensitivity score (UT-SCC-24B; [11]): 16.1 ± 1.8 DSS
- drug sensitivity score (UT-SCC-24B; [12]): 13.9 ± 1.9 DSS
- drug sensitivity score (UT-SCC-24B; [13]): 16.6 ± 3.5 DSS
- drug sensitivity score (UT-SCC-42B; [9]): 10.2 ± 4.3 DSS
- drug sensitivity score (UT-SCC-42B; [11]): 1.8 ± 1.7 DSS
- drug sensitivity score (UT-SCC-42B; [12]): 1 ± 0.87 DSS
- drug sensitivity score (UT-SCC-42B; [13]): 0.967 ± 0.58 DSS
- drug sensitivity score (UT-SCC-73 [1]; [9]): 16 ± 2.9 DSS
- drug sensitivity score (UT-SCC-73 [1]; [10]): 12.1 ± 4.3 DSS
- drug sensitivity score (UT-SCC-73 [1]; [11]): 13.9 ± 2.8 DSS
- drug sensitivity score (UT-SCC-73 [1]; [12]): 12.7 ± 3 DSS
- drug sensitivity score (UT-SCC-73 [1]; [13]): 12.6 ± 4.8 DSS
- drug sensitivity score (UT-SCC-81; [9]): 23.6 ± 11 DSS
- drug sensitivity score (UT-SCC-81; [10]): 14.2 ± 7.1 DSS
- drug sensitivity score (UT-SCC-81; [11]): 15.9 ± 7.3 DSS
- drug sensitivity score (UT-SCC-81; [12]): 13.6 ± 6.6 DSS
- drug sensitivity score (UT-SCC-81; [13]): 14.4 ± 8.1 DSS
- drug sensitivity score (UT-SCC-40; [9]): 13.4 ± 5.6 DSS
- drug sensitivity score (UT-SCC-40; [10]): 11.5 ± 5.7 DSS
- drug sensitivity score (UT-SCC-40; [11]): 12.1 ± 5.5 DSS
- drug sensitivity score (UT-SCC-40; [12]): 8.77 ± 3.4 DSS
- drug sensitivity score (UT-SCC-40; [13]): 8.4 ± 3.7 DSS
- drug sensitivity score (UT-SCC-106A; [9]): 17.5 ± 1.9 DSS
- drug sensitivity score (UT-SCC-106A; [10]): 9.13 ± 3.2 DSS
- drug sensitivity score (UT-SCC-106A; [11]): 15 ± 3.7 DSS
- drug sensitivity score (UT-SCC-106A; [12]): 8.9 ± 4.4 DSS
- drug sensitivity score (UT-SCC-106A; [13]): 15.3 ± 3 DSS
- drug sensitivity score (UT-SCC-44 [2]; [9]): 10.5 ± 1.6 DSS
- drug sensitivity score (UT-SCC-44 [2]; [10]): 4.07 ± 2.6 DSS
- drug sensitivity score (UT-SCC-44 [2]; [11]): 8.07 ± 0.71 DSS
- drug sensitivity score (UT-SCC-44 [2]; [12]): 4.63 ± 1.3 DSS
- drug sensitivity score (UT-SCC-44 [2]; [13]): 5.7 ± 0.1 DSS
- drug sensitivity score (UT-SCC-42A [3]; [9]): 5.87 ± 2.1 DSS
- drug sensitivity score (UT-SCC-42A [3]; [10]): 5.73 ± 2.2 DSS
- drug sensitivity score (UT-SCC-42A [3]; [11]): 7.63 ± 4.4 DSS
- drug sensitivity score (UT-SCC-42A [3]; [12]): 6.6 ± 2.3 DSS
- drug sensitivity score (UT-SCC-42A [3]; [13]): 7.97 ± 3.2 DSS
- drug sensitivity score (UT-SCC-28; [9]): 10.5 ± 5.4 DSS
- drug sensitivity score (UT-SCC-28; [10]): 6.7 ± 5 DSS
- drug sensitivity score (UT-SCC-28; [11]): 13.8 ± 2.3 DSS
- drug sensitivity score (UT-SCC-28; [13]): 11.5 ± 1.7 DSS
- drug sensitivity score (UT-SCC-14 [4]; [9]): 14.9 ± 7.8 DSS
- drug sensitivity score (UT-SCC-14 [4]; [10]): 8.67 ± 4.7 DSS
- drug sensitivity score (UT-SCC-14 [4]; [11]): 12.8 ± 5.7 DSS
- drug sensitivity score (UT-SCC-14 [4]; [12]): 9.9 ± 2.5 DSS
- drug sensitivity score (UT-SCC-14 [4]; [13]): 9.5 ± 2 DSS
- relative IC50 (UT-SCC-73 [5]): 272 nM
- relative IC50 (UT-SCC-44 [6]; [9]): 78.9 nM
- relative IC50 (UT-SCC-44 [6]; [12]): 805 nM
- relative IC50 (UT-SCC-42A [7]): 1810 nM
- relative IC50 (UT-SCC-14 [8]; [12]): 543 nM
- relative IC50 (UT-SCC-14 [8]; [13]): 741 nM
